Laboratory results as given in patent publication US4611059A, “Pyridyl-substituted benzothiophenes” (The Upjohn Company, priority 1985, dated 1986).

Target: T1, TXA2 synthetase (Homo sapiens, UniProt P24557)
T1 construct: human platelet microsomes (HPM); from tissue; host or cells: human platelet microsomes
T1 sequence (P24557 1-533): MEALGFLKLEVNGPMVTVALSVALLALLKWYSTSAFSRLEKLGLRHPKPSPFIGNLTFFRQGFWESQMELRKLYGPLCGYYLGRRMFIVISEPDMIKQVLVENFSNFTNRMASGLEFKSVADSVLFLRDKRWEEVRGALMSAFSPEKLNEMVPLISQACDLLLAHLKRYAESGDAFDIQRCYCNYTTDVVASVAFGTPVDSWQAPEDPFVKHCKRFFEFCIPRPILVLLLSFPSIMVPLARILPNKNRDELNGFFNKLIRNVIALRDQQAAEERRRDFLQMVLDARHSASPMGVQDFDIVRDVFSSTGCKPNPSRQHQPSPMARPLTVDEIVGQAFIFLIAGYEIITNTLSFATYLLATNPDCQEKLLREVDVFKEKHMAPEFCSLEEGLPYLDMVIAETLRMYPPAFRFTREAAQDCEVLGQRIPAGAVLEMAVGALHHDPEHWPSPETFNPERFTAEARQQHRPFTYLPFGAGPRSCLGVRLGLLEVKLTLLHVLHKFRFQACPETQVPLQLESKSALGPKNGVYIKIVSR
Assay: TXA2 inhibition test: TXA2 generated from PGH2 with human platelet microsomes, measured by the response of superfused rabbit aortic strips
Type: biochemical
Settings: test compound added to human platelet microsomes 5 minutes before mixing with PGH2; rabbit aorta response; read-out: approximate ED50 (inhibiting TXA2 formation) (converted)
Experimental: The compounds of the present invention were tested for TXA2 inhibition as follows:
Rabbit aortic strips were superfused in series with Krebs solution. Thromboxane A2 (TXA2) was generated by mixing prostaglandin H2 (PGH2) with human platelet microsomes (HPM).
Potential inhibitors were tested by comparing the response of the rabbit aorta to the amount of TXA2 produced by mixing PGH2 and HPM without the test compound in the reaction medium and then the amount of TXA2 produced when the test compound was added to the HPM 5 minutes before the HPM was mixed with PGH2. […] For a discussion of TXA2 synthetase inhibition testing see, e.g., R. Gorman, supra.

## O=C(O)c1cc2cc(Cc3cccnc3)ccc2s1 [Example 7, 5-(3-pyridinylmethyl)benzo[b]thiophene-2-carboxylic acid]
  IC50: ~3.71 nM
